pEC50, pIC50: −log10 of the molar value.
Biological target: Growth hormone secretagogue receptor type 1 (Homo sapiens, UniProt Q92847)
Test: Receptor Binding Studies

Growth hormone secretagogue receptor type 1, sequence (Q92847 whole entry): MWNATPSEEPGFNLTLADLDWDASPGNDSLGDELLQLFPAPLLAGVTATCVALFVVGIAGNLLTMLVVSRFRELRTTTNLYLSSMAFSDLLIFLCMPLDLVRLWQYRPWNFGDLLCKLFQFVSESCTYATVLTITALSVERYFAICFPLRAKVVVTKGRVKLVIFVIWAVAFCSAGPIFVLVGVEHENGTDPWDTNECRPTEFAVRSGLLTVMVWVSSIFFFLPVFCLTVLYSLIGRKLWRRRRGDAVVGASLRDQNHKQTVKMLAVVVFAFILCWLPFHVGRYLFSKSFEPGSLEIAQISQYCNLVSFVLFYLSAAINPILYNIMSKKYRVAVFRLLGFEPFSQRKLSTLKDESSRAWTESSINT

COc1ccc(Cn2c(CCc3c[nH]c4ccccc34)nnc2[C@@H](Cc2c[nH]c3ccccc23)NC(=O)C(C)(C)N)cc1
Kb (pH 7.3, 25 °C): 4 nM

COc1ccc(Cn2c(CCc3c[nH]c4ccccc34)nnc2[C@@H](Cc2c[nH]c3ccccc23)NC(=O)[C@@H]2CCCN2)c(OC)c1
Kb (pH 7.3, 25 °C): 11 nM

COc1ccc(Cn2c(CCc3c[nH]c4ccccc34)nnc2[C@@H](Cc2c[nH]c3ccccc23)NC(=O)C2CNCCN2)c(OC)c1 (mixture of isomers) [N-[(1R)-1-{4-[(2,4-dimethoxyphenyl)methyl]-5-[2-(1H-indol-3-yl)ethyl]-4H-1,2,4-triazol-3-yl}-2-(1H-indol-3-yl)ethyl]piperazine-2-carboxamide]
Kb: 5 nM

COc1ccc(Cn2c(CCc3c[nH]c4ccccc34)nnc2[C@@H](Cc2c[nH]c3ccccc23)NC(=O)CN)c(OC)c1 [2-amino-N-[(1R)-1-{4-[(2,4-dimethoxyphenyl)methyl]-5-[2-(1H-indol-3-yl)ethyl]-4H-1,2,4-triazol-3-yl}-2-(1H-indol-3-yl)ethyl]acetamide]
Kb (pH 7.3, 25 °C): 27 nM

COc1ccc(Cn2c(CCc3ccccc3)nnc2[C@@H](Cc2c[nH]c3ccccc23)NC(=O)CCN)cc1 [3-amino-N-[(1R)-2-(1H-indol-3-yl)-1-{4-[(4-methoxyphenyl)methyl]-5-(2-phenylethyl)-4H-1,2,4-triazol-3-yl}ethyl]propanamide]
pEC50 (pH 7.3, 25 °C): 6.59

COc1ccc(Cn2c(CCc3ccccc3)nnc2[C@@H](Cc2c[nH]c3ccccc23)NC(=O)[C@H]2CCCCN2)c(OC)c1 [(2R)-N-[(1R)-1-{4-[(2,4-dimethoxyphenyl)methyl]-5-(2-phenylethyl)-4H-1,2,4-triazol-3-yl}-2-(1H-indol-3-yl)ethyl]piperidine-2-carboxamide]
pIC50: 6.87

CCc1ccc(Cn2c(CCc3ccccc3)nnc2[C@@H](Cc2c[nH]c3ccccc23)NC(=O)[C@H]2CCCCN2)cc1 [(2R)-N-[(1R)-1-{4-[(4-ethylphenyl)methyl]-5-(2-phenylethyl)-4H-1,2,4-triazol-3-yl}-2-(1H-indol-3-yl)ethyl]piperidine-2-carboxamide]
pIC50: 6.43

COc1ccc(Cn2c(CCc3ccccc3)nnc2[C@@H](Cc2c[nH]c3ccccc23)NC(=O)[C@H]2CCCN2)cc1 [(2R)-N-[(1R)-2-(1H-indol-3-yl)-1-{4-[(4-methoxyphenyl)methyl]-5-(2-phenylethyl)-4H-1,2,4-triazol-3-yl}ethyl]pyrrolidine-2-carboxamide]
pIC50 (pH 7.3, 25 °C): 7.49
Kb (pH 7.3, 25 °C): 8 nM

COc1ccc(Cn2c(CCc3c[nH]c4ccccc34)nnc2[C@@H](Cc2c[nH]c3ccccc23)NC(=O)[C@H]2CCCCN2)cc1 [(2R)-N-[(1R)-2-(1H-indol-3-yl)-1-{5-[2-(1H-indol-3-yl)ethyl]-4-[(4-methoxyphenyl)methyl]-4H-1,2,4-triazol-3-yl}ethyl]piperidine-2-carboxamide]
Kb: 8 nM

COc1ccc(Cn2c(CCc3c[nH]c4ccccc34)nnc2[C@@H](Cc2c[nH]c3ccccc23)NC(=O)[C@H]2CCCN2)cc1 [(2R)-N-[(1R)-2-(1H-indol-3-yl)-1-{5-[2-(1H-indol-3-yl)ethyl]-4-[(4-methoxyphenyl)methyl]-4H-1,2,4-triazol-3-yl}ethyl]pyrrolidine-2-carboxamide]
Kb (pH 7.3, 25 °C): 7 nM

CCc1ccc(Cn2c(CCc3ccccc3)nnc2[C@@H](Cc2c[nH]c3ccccc23)NC(=O)[C@H](C)N)cc1 [(2S)-2-amino-N-[(1R)-1-{4-[(4-ethylphenyl)methyl]-5-(2-phenylethyl)-4H-1,2,4-triazol-3-yl}-2-(1H-indol-3-yl)ethyl]propanamide]
pIC50 (pH 7.3, 25 °C): 6.56

COc1ccc(Cn2c(CCc3ccccc3)nnc2[C@@H](Cc2c[nH]c3ccccc23)NC(=O)[C@@H](N)Cc2ccccc2)cc1 [(2S)-2-amino-N-[(1R)-2-(1H-indol-3-yl)-1-{4-[(4-methoxyphenyl)methyl]-5-(2-phenylethyl)-4H-1,2,4-triazol-3-yl}ethyl]-3-phenylpropanamide]
Kb (pH 7.3, 25 °C): 24 nM

COc1ccc(Cn2c(CCc3ccccc3)nnc2[C@@H](Cc2c[nH]c3ccccc23)NC(=O)[C@@H]2CCCN2)c(OC)c1 [(2S)-N-[(1R)-1-{4-[(2,4-dimethoxyphenyl)methyl]-5-(2-phenylethyl)-4H-1,2,4-triazol-3-yl}-2-(1H-indol-3-yl)ethyl]pyrrolidine-2-carboxamide]
Kb (pH 7.3, 25 °C): 32 nM

CCc1ccc(Cn2c(CCc3ccccc3)nnc2[C@@H](Cc2c[nH]c3ccccc23)NC(=O)[C@@H]2CCCN2)cc1 [(2S)-N-[(1R)-1-{4-[(4-ethylphenyl)methyl]-5-(2-phenylethyl)-4H-1,2,4-triazol-3-yl}-2-(1H-indol-3-yl)ethyl]pyrrolidine-2-carboxamide]
pIC50 (pH 7.3, 25 °C): 6.31

O=C(N[C@H](Cc1c[nH]c2ccccc12)c1nnc(CCc2ccccc2)n1-c1ccccc1)[C@@H]1CCCN1 [(2S)-N-[(1R)-2-(1H-indol-3-yl)-1-[4-phenyl-5-(2-phenylethyl)-4H-1,2,4-triazol-3-yl]ethyl]pyrrolidine-2-carboxamide]
pIC50 (pH 7.3, 25 °C): < 6.00

COc1ccc(Cn2c(CCc3ccccc3)nnc2[C@@H](Cc2c[nH]c3ccccc23)NC(=O)[C@@H]2CCCN2)cc1 [(2S)-N-[(1R)-2-(1H-indol-3-yl)-1-{4-[(4-methoxyphenyl)methyl]-5-(2-phenylethyl)-4H-1,2,4-triazol-3-yl}ethyl]pyrrolidine-2-carboxamide]
pIC50 (pH 7.3, 25 °C): 8.02
Kb (pH 7.3, 25 °C): 13 nM

COc1ccc(Cn2c(CCc3c[nH]c4ccccc34)nnc2[C@@H](Cc2c[nH]c3ccccc23)NC(=O)[C@@H]2CCCN2)cc1 [(2S)-N-[(1R)-2-(1H-indol-3-yl)-1-{5-[2-(1H-indol-3-yl)ethyl]-4-[(4-methoxyphenyl)methyl]-4H-1,2,4-triazol-3-yl}ethyl]pyrrolidine-2-carboxamide]
Kb (pH 7.3, 25 °C): 6 nM

COc1ccc(Cn2c(CCc3ccccc3)nnc2[C@@H](Cc2c[nH]c3ccccc23)NC(=O)[C@H]2CCCNC2)cc1 [(3S)-N-[(1R)-2-(1H-indol-3-yl)-1-{4-[(4-methoxyphenyl)methyl]-5-(2-phenylethyl)-4H-1,2,4-triazol-3-yl}ethyl]piperidine-3-carboxamide]
Kb (pH 7.3, 25 °C): 10 nM

COc1ccc(Cn2c(CCc3ccccc3)nnc2[C@@H](Cc2c[nH]c3ccccc23)NC(=O)[C@H](C)N)cc1 [(S)-N-((R)-1-(4-(4-Methoxybenzyl)-5-phenethyl-4H-1,2,4-triazol-3-yl)-2-(1H-indol-3-yl)ethyl)-2-aminopropanamide]
pIC50 (pH 7.3, 25 °C): 6.95

COc1ccc(-n2c(CCc3ccccc3)nnc2[C@@H](Cc2c[nH]c3ccccc23)NC(=O)C2CCNCC2)c(OC)c1 [N-[(1R)-1-[4-(2,4-dimethoxyphenyl)-5-(2-phenylethyl)-4H-1,2,4-triazol-3-yl]-2-(1H-indol-3-yl)ethyl]piperidine-4-carboxamide]
pEC50: 7.85

O=C(N[C@H](Cc1c[nH]c2ccccc12)c1nnc(CCc2ccccc2)n1Cc1ccco1)C1CCNCC1 [N-[(1R)-1-[4-(furan-2-ylmethyl)-5-(2-phenylethyl)-4H-1,2,4-triazol-3-yl]-2-(1H-indol-3-yl)ethyl]piperidine-4-carboxamide]
pEC50: 6.74
pIC50: 6.25

O=C(N[C@H](Cc1c[nH]c2ccccc12)c1nnc(Cc2ccccc2)n1Cc1ccccn1)C1CCNCC1 [N-[(1R)-1-[5-benzyl-4-(pyridin-2-ylmethyl)-4H-1,2,4-triazol-3-yl]-2-(1H-indol-3-yl)ethyl]piperidine-4-carboxamide]
pIC50: < 6.00

COc1ccc(Cn2c(CCc3ccccc3)nnc2[C@@H](Cc2c[nH]c3ccccc23)NC(=O)C2CNCCN2)c(OC)c1 (stereo partly drawn) [N-[(1R)-1-{4-[(2,4-dimethoxyphenyl)methyl]-5-(2-phenylethyl)-4H-1,2,4-triazol-3-yl}-2-(1H-indol-3-yl)ethyl]piperazine-2-carboxamide]
pEC50: 7.71

COc1ccc(Cn2c(CCc3ccccc3)nnc2[C@@H](Cc2c[nH]c3ccccc23)NC(=O)C2CCNCC2)c(OC)c1 [N-[(1R)-1-{4-[(2,4-dimethoxyphenyl)methyl]-5-(2-phenylethyl)-4H-1,2,4-triazol-3-yl}-2-(1H-indol-3-yl)ethyl]piperidine-4-carboxamide]
pEC50: 8.21

COc1ccc(Cn2c(CCc3c[nH]c4ccccc34)nnc2[C@@H](Cc2c[nH]c3ccccc23)NC(=O)C2CCCCN2)c(OC)c1 (stereo partly drawn) [N-[(1R)-1-{4-[(2,4-dimethoxyphenyl)methyl]-5-[2-(1H-indol-3-yl)ethyl]-4H-1,2,4-triazol-3-yl}-2-(1H-indol-3-yl)ethyl]piperidine-2-carboxamide]
Kb: 18 nM

CCc1ccc(Cn2c(CCc3ccccc3)nnc2[C@@H](Cc2c[nH]c3ccccc23)NC(=O)C2CNCCN2)cc1 (stereo partly drawn) [N-[(1R)-1-{4-[(4-ethylphenyl)methyl]-5-(2-phenylethyl)-4H-1,2,4-triazol-3-yl}-2-(1H-indol-3-yl)ethyl]piperazine-2-carboxamide]
pEC50: 6.84
pIC50: 6.75

O=C(N[C@H](Cc1c[nH]c2ccccc12)c1nnc(CCc2ccccc2)n1-c1ccccc1)C1CCNCC1 [N-[(1R)-2-(1H-indol-3-yl)-1-[4-phenyl-5-(2-phenylethyl)-4H-1,2,4-triazol-3-yl]ethyl]piperidine-4-carboxamide]
pIC50: 6.33

O=C(N[C@H](Cc1c[nH]c2ccccc12)c1nnc(CCc2ccccc2)n1Cc1ccccn1)C1CCCNC1 (stereo partly drawn) [N-[(1R)-2-(1H-indol-3-yl)-1-[5-(2-phenylethyl)-4-(pyridin-2-ylmethyl)-4H-1,2,4-triazol-3-yl]ethyl]piperidine-3-carboxamide]
pIC50 (pH 7.3, 25 °C): < 6.00

COc1ccc(Cn2c(CCc3ccccc3)nnc2[C@@H](Cc2c[nH]c3ccccc23)NC(=O)C2CCCCC2)cc1 [N-[(1R)-2-(1H-indol-3-yl)-1-{4-[(4-methoxyphenyl)methyl]-5-(2-phenylethyl)-4H-1,2,4-triazol-3-yl}ethyl]cyclohexanecarboxamide]
pEC50: 6.41

COc1ccc(Cn2c(CCc3ccccc3)nnc2[C@@H](Cc2c[nH]c3ccccc23)NC(=O)C2CCOCC2)cc1 [N-[(1R)-2-(1H-indol-3-yl)-1-{4-[(4-methoxyphenyl)methyl]-5-(2-phenylethyl)-4H-1,2,4-triazol-3-yl}ethyl]oxane-4-carboxamide]
pIC50: 8.22
Kb: 51 nM

COc1ccc(Cn2c(CCc3ccccc3)nnc2[C@@H](Cc2c[nH]c3ccccc23)NC(=O)C2CNCCN2)cc1 (stereo partly drawn) [N-[(1R)-2-(1H-indol-3-yl)-1-{4-[(4-methoxyphenyl)methyl]-5-(2-phenylethyl)-4H-1,2,4-triazol-3-yl}ethyl]piperazine-2-carboxamide]
pEC50: 7.92
